Test results: PMC6789782, “Safety Pharmacological Evaluation of the Coffee Component, Caffeoylquinic Acid, and Its Metabolites, Using Ex Vivo and In Vitro Profiling Assays” (Pharmaceuticals, 2019)

What was measured:
rat hippocampal slices [1] = experiment: Electrophysiological assay of hippocampal slices, population spike (PS) recording
Protocol: All animals were housed and used in accordance with the French and European legislations for animal care. Rats (Janvier Labs, Le Genest-Saint-Isle, France) were euthanized by fast decapitation, without prior anesthesia. The brain was quickly removed and soaked in ice-cold oxygenated buffer containing KCl 2 mM, NaH2PO4 1.2 mM, MgCl2 7 mM, CaCl2 0.5 mM, NaHCO3 26 mM, glucose 11 mM, and sucrose 250 mM. […] During the experiments, slices were perfused with oxygenated artificial cerebrospinal fluid at 37 °C at a rate of 3 mL/min. The tested slice numbers were > 2 for 100 µM, > 4 for 10 µM, and > 6 for 1 µM (follow-up study). All experiments were carried out with 3-dimensional multielectrode array (Qwane Biosciences S.A., Lausanne, Switzerland) and data were recorded with a commercially available multielectrode array set-up from MultiChannel Systems (MCS GmbH, Reutlingen, Germany).
A hippocampal slice was placed on the multielectrode array (100 μm distant electrodes). One electrode was chosen to stimulate schaffer collaterals (SC) at the CA1 border. The stimulus in a monopolar biphasic current pulse (−300 μA for 60 μs followed by +300 μA for 60 μs) was applied at 30-s intervals. An Input/Output (I/O) curve was derived before each experiment to determine the stimulation intensity. Basal stimulation intensity was then set to 100 μA higher than the minimal intensity necessary to induce PS in the pyramidal cell layer.
Then, 1 μM bicuculline, the antagonist of GABAA, was applied in the continuous presence of the compound for an additional 40-min. Control bicuculline slices were recorded in parallel and after 50 min of control recording, 1 μM bicuculline was applied for a 40-min period.
Normalized PS AUC was averaged by slices for each experiment carried out in the same conditions. PS AUC (± SEM) is expressed as a function of time. The number of PS oscillations induced at the end of the bicuculline-exposure period was determined for each electrode and averaged by slices. The results are presented as mean of the last 2 min of application. Statistical significance was measured using two-way ANOVA analysis with Sidak’s multiple comparisons test, except for the 100 µM concentration because of its small slice number.

[2] = system: isolated perfused guinea pig heart; experiment: Langendorff perfused heart assay
Protocol: After injection of heparin sodium (100 unit/body, AY Pharmaceuticals Co., Ltd.) into the jugular vein, the animals were exsanguinated. […] A stainless-steel cannula was inserted in the aorta, followed by attachment to the Langendorff apparatus (Physio-Tech Co., Ltd., Tokyo, Japan). The attached heart was perfused with KH solution at 37.0 ± 0.2 °C. Before use, the KH solution was aerated by a gas mixture (95%O2 + 5%CO2) for 30 min or longer. The perfusion pressure was maintained at 70 mmHg.
DMSO solutions at 1, 10, and 100 mM were diluted 1000-fold with the KH solution to make test solutions of 1, 10, and 100 μM, respectively. The test solutions were cumulatively applied at a flow rate of 20 mL/min for 10 min with each concentration.
An ECG signal was recorded using electrodes fixed on the ventricular apex (+), and a stainless-steel cannula was inserted in the aorta (−), and LVP was recorded from the balloon catheter placed in the left ventricle. The ECG signals were amplified with an amplifier (DAM50; World Precision Instruments, Inc.) and LVPs were monitored with a Pressure Monitor 4 (Living Systems Instrumentation). Both of the waveforms were recorded with computer software (1000 Hz; iox2 and ecgAUTO3; emka Technologies).
Before measurement, the in-balloon pressure was adjusted so that the diastolic blood pressure would be in the range of 0 to 10 mmHg. The cardiac parameters, such as HR, PR interval, QRS duration, QT interval, QTc interval (Fridericia’s formula: QTc = QT/RR^1/3), LVPSP, left-ventricular end diastolic pressure (LVEDP), and LV dP/dt max, were measured.
Data are expressed as mean (± SD). The measured % changes from the pre-application value were used for analyses. Williams test was carried out between the solvent-control and test compound. Student’s t-test was carried out between the solvent-control and positive-control. […] The data from the solvent control and drug groups were tested by F test for homogeneity of variance. F test was performed at the significance level of 5%. When the variances were homogeneous, Student’s t-test was subsequently performed. When the variances were nonhomogeneous, Welch t-test was selected.

rat hippocampal slices [3] = experiment: Electrophysiological assay of hippocampal slices, epileptiform discharge (ED) recording; conditions: ± SEM
Protocol: A hippocampal slice was placed on the multielectrode array (200 μm distant electrodes) to ensure the multi-electrode grid covered the major surface of the slice. […]
ED frequency (in Hz) was determined as follows: raw data were filtered with a Low Pass filter (Butterworth second order filter) set to 20 Hz. ED number was monitored on-line (epileptiform event amplitudes had to be higher than 15 μV to be counted; a dead time of 200 ms was applied for each epileptiform event detected). ED frequency was averaged using 30-s time intervals. Results are presented as mean frequency of ED for the last 2 min of each condition (± SEM).

[4] = cited from earlier work
peristaltic movement = system: peristaltic movement; parameters: method as in earlier work; conditions: ref review reports on the Pharmaceuticals and Medical Devices Agency website; cited from earlier work
[5] = laboratory background data of drugs, n = 3
[6] = within the existing concentration range of each drug, laboratory background data

SMILES	Lowest concentration indicating statistically significant % change to solvent control, HR [2, 5]	Lowest concentration indicating statistically significant % change to solvent control, LVPSP [2, 5]	Lowest concentration indicating statistically significant % change to solvent control, PR [2, 5]	Lowest concentration indicating statistically significant % change to solvent control, QRS [2, 5]	EfTPC (effective free therapeutic plasma concentration) [4]	Lowest concentration indicating statistically significant % change to solvent control, LV dP/dtmax [2, 5]	Lowest concentration indicating statistically significant % change to solvent control, QT [2, 5]	Lowest concentration indicating statistically significant % change to solvent control, QTc [2, 5]	Maximum % change in LV dP/dt max [2, 6]	also measured
CN1CCc2cc3c(cc2[C@H]1[C@@H]1OC(=O)c2c1ccc1c2OCO1)OCO3 [bicuculline, reference compound]	–	–	–	–	–	–	–	–	–	Additional spike number (rat hippocampal slices [1]; 1 μM alone, single stimulation, control slices): 1.32 ± 0.32; Additional spike number (rat hippocampal slices [1]; follow-up test, 1 μM bicuculline control slices): 1.47 ± 0.18
O=C(O[C@@H]1C[C@@H]2C[C@H]3C[C@H](C1)N2CC3=O)c1c[nH]c2ccccc12 [Dolasetron]	1 µM	1 µM	1 µM	3 µM	–	–	–	–	–	Lowest concentration indicating statistically significant % change to solvent control, LV dP/dtmax ([2]; Hartley, guinea pig): 1 µM; Lowest concentration indicating statistically significant % change to solvent control, QT ([2]; Hartley, guinea pig): 1 µM; Lowest concentration indicating statistically significant % change to solvent control, QTc ([2]; Hartley, guinea pig): 1 µM; Maximum % change in PR interval [2, 6]: 106.9%
Nc1ccncc1 [4-AP, 4-aminopyridine, reference compound]	–	–	–	–	–	–	–	–	–	ED rate (rat hippocampal slices [3]; 4-AP control slices (4-AP alone)): 0.38 ± 0.02 Hz; ED rate (rat hippocampal slices [3]; follow-up test, 4-AP control slices): 0.38 ± 0.04 Hz
COc1c(N2C[C@@H]3CCCN[C@@H]3C2)c(F)cc2c(=O)c(C(=O)O)cn(C3CC3)c12 [Moxifloxacin]	30 µM	3 µM	30 µM	10 µM	10.960 [26] µM	100 µM	3 µM	3 µM	–	Maximum % change in QT interval [2, 6]: 29.3%
CN(CCOc1ccc(NS(C)(=O)=O)cc1)CCc1ccc(NS(C)(=O)=O)cc1 [Dofetilide]	0.001 µM	0.03 µM	0.01 µM	–	–	–	0.001 µM	0.001 µM	–	Maximum % change in QT interval [2, 6]: 33.5%
Nc1nnc(-c2cccc(Cl)c2Cl)c(N)n1 [Lamotrigine]	–	–	–	–	–	–	–	–	–	Concentration at which peristaltic movement was reduced (peristaltic movement): 300 nM
O=C(O)COCCN1CCN([C@H](c2ccccc2)c2ccc(Cl)cc2)CC1 [Levocetirizine]	–	–	–	–	–	–	–	–	−21.8%	–
Cc1nccn1CC1CCc2c(c3ccccc3n2C)C1=O (stereo not shown) [Ondansetron]	1 µM	1 µM	10 µM	10 µM	1.023 [25] µM	1 µM	1 µM	1 µM	−47.4%	Lowest concentration indicating statistically significant % change to solvent control, LVEDP [2, 5]: 1 µM
C=C[C@H]1C[N@@]2CC[C@H]1C[C@H]2[C@H](O)c1ccnc2ccc(OC)cc12 [Quinine]	1 µM	1 µM	3 µM	3 µM	21.577 [25] µM	1 µM	1 µM	1 µM	−77.3%	Lowest concentration indicating statistically significant % change to solvent control, LVEDP [2, 5]: 30 µM
